Assay results published in US20080206311A1, “Sucrase Activity Inhibitor, Glucoamylase Activity Inhibitor and Food and Feed Containing the Same” (MITSUI SUGAR CO., LTD., priority 2005, published 2008).

How the values were obtained:
glucoamylase [1] = experiment: Ratio of inhibitor to the substrate dextrin (Examples 10, 11); format: biochemical, rat
Procedure: Each 0.15 ml of a small intestinal enzyme solution was added to each 2.5 ml of the aforementioned 20 samples, each mixture, and placed in a water bath at 37° C. to allow reaction for 10 minutes while shaken at 60 strokes/min. At the end of the reaction, the mixture was heated in a boiling water bath for 3 min. for inactivation of the enzyme. As a blank, 0.15 ml of the intestinal enzyme solution was added to 0.1 M phosphate buffer (pH 6.8) and the enzyme was inactivated immediately.
After the reaction, the glucose concentration in each solution was measured using the F-kit Glucose (ex Roche) as in Example 1.
The procedures in Example 8 were repeated with the exception that sixteen samples with the concentrations shown in Table 13, Samples C-1 through C-16, were dissolved in 0.1 M phosphate buffer (pH 6.8) to a final volume of 2.5 ml.
The procedures in Example 8 were repeated with the exception that sixteen samples with the concentrations shown in Table 14, Samples D-1 through D-16, were dissolved in 0.1 M phosphate buffer (pH 6.8) to a final volume of 2.5 ml.

glucoamylase [2] = experiment: Glucoamylase activity inhibition with rat small-intestinal enzyme liquid, substrate soluble starch; format: biochemical; conditions: 5% soluble starch + 5% test sample
Procedure: Two grams of rat small-intestinal acetone powder (ex Sigma Corporation) were dissolved in 20 ml of 0.1 M phosphate buffer (pH 6.8), left standing one day at 5° C., and subsequently subjected to centrifugal separation (8000 rpm×15 min.). The supernatant was filtered through a 0.8 μm membrane filter to obtain a small-intestinal enzyme liquid. This liquid contained a mixture of enzymes present in small intestine, such as sucrose, glucoamylase, maltase, and isomaltase.
Each 0.25 ml of the small-intestinal enzyme liquid was added to each 5 ml of Solutions 1 through 5 and placed in a water bath at 37° C. to allow them to react for 60 min. while shaken at 60 strokes/min. After the reaction, they were heated in a boiling water bath for 3 min. for inactivation of the enzymes.
The glucose concentration in each solution after the reaction was measured using the F-kit Glucose (ex Roche). A liberated glucose concentration (g/l) was calculated by subtracting the blank value (0.1 M phosphate buffer alone) and the concentration of glucose originally contained in the test sample from each glucose concentration measured.
Next, each of the liberated glucose concentration was input in the following equation to obtain decomposition inhibition ratio for maltase and sucrose. In the present tests, the substrates and the inhibitors were decomposed by enzymes present in the small-intestinal enzyme liquid. However, the enzymes decomposing the substrates are different from the enzymes decomposing the inhibitors. The decomposition inhibition ratio was determined as a measure for the inhibitory effect. When the inhibitor was added, the glucose concentration was lower than that seen when the substrate alone was reacted. A higher decomposition inhibition ratio means a stronger inhibitory effect.
Decomposition inhibition ratio,%={(A+B)−(AB)}+(A+B)×100 [Equation 1]
wherein (A+B) indicates a sum of a liberated glucose concentration in the control solution containing the test sample alone after the reaction (A) and a liberated glucose concentration in the control solution containing the substrate alone after the reaction (B); and (AB) indicates a liberated glucose concentration in the test solution containing the test sample (A) and the substrate (B), after the reaction.
The procedures in Example 1 were repeated with the exception that palatinose and palatinit were used as a test sample and soluble starch was used as a substrate. The test samples and the substrate were dissolved in 0.1 M phosphate buffer (pH 6.8) to attain the concentration shown in Table 6 to thereby prepare two test solutions. Besides, each of the test samples or the substrate was dissolved in 0.1 M phosphate buffer (pH 6.8) to attain the concentration shown in Table 6 to thereby prepare control solutions. Each 5 ml of the aforementioned test solutions and the control solutions was subjected to the enzymatic reaction according to the same procedures as in Example 1 and the liberated glucose concentration and the decomposition inhibition ratio were measured.
The procedures in Example 1 were repeated with the exception that trehalulose was used as a test sample and soluble starch was used as a substrate. The test sample and the substrate were dissolved in 0.1 M phosphate buffer (pH 6.8) to attain the concentration shown in Table 9 to thereby prepare a test solution. Besides, the test sample or the substrate was dissolved in 0.1 M phosphate buffer (pH 6.8) to attain the concentration shown in Table 9 to thereby prepare control solutions. Each 5 ml of the aforementioned test solution and the control solutions was subjected to the enzymatic reaction according to the same procedures as in Example 1 and the liberated glucose concentration and the decomposition inhibition ratio were measured.
The procedures in Example 1 were repeated with the exception that trehalose was used as a test sample and soluble starch was used as a substrate. […]

With OC[C@H]1O[C@H](OC[C@H]2OC(O)(CO)[C@@H](O)[C@@H]2O)[C@H](O)[C@@H](O)[C@@H]1O (some centres unmarked) [palatinose, isomaltulose] the “Ratio of inhibitor added relative to the weight of dextrin at which the inhibitory effect on decomposition of dextrin was seen at all dextrin concentrations” value (glucoamylase [1]; dextrin 0.5%, 2%, 5%, 10%, FIG. 8 (palatinose), FIG. 9 (palatinit)) was “above 10%”, the “Inhibitory effect on decomposition of dextrin (FIG. 8)” value (glucoamylase [1]; palatinose 5% relative to the weight of dextrin, dextrin concentration 10%) was “no inhibitory effect on decomposition of dextrin was seen” and the “Glucoamylase activity inhibitory effect (in words)” value (glucoamylase [2]) was “have the glucoamylase activity inhibitory effect”. The “Decomposition inhibition ratio, %, against glucoamylase” value (glucoamylase [2]; Example 4) was 26% and the Liberated glucose concentration (glucoamylase [2]; Example 4) was 3.611 g/L.
